pIC50: −log10 of the molar value. Counter-ions that a name gives are not always drawn. Like-named read-outs stand apart in the source and are kept apart here.
What was measured:
murine leukaemia P388 = test: In vitro cytotoxicity, Microculture Tetrazolium Assay, P388; format: cell-based; conditions: Mus musculus
Method: (§1) A/In Vitro Activity: Cytotoxicity
(§2) Four cell lines were used:
(§3) The cells are distributed onto microplates and exposed to the cytotoxic compounds. The cells are then incubated for 2 days (P388) or 4 days (LLC, KB-A1, KB-3-1).

[1] = tested on: human epidermoid carcinoma, KB-3-1; test: In vitro cytotoxicity, Microculture Tetrazolium Assay, KB-3-1; format: cell-based
Method: as §1, §2, §3

[2] = tested on: KB-A1 (multi-drug resistant line induced by adriamycin); test: In vitro cytotoxicity, Microculture Tetrazolium Assay, KB-A1 (adriamycin-resistant); format: cell-based; conditions: Homo sapiens
Method: as §1, §2
the corresponding resistant line, KB-A1, the multi-drug resistance of which was induced by adriamycin (ADR).
as §3

[3] = tested on: murine lung carcinoma, Lewis Lung Carcinoma (LLC); test: In vitro cytotoxicity, Microculture Tetrazolium Assay, LLC; format: cell-based; conditions: Mus musculus, 96 h
Method: as §1, §2
1 murine lung carcinoma, Lewis Lung Carcinoma (LLC),
as §3

[4] = tested on: human lung carcinoma NCI-H460; test: Anti-tumour activity in an orthotopic model of human lung carcinoma NCI-H460 implanted intrapleurally; format: in vivo, human (tumour line, in female Nude Balb/C mice); conditions: for toxicity of the dose: dihydrochloride
Method: 2/Anti-tumour Activity of the Compounds in an Orthotopic Model of Human Lung Carcinoma NCI-H460 Implanted Intrapleurally
The line NCI-H460, which originates from a human lung carcinoma of "not small cell" type, was supplied by the American Type Culture Collection (Frederick, USA). The cells are cultured in vitro in complete RPMI 1640 medium in Falcon flasks. On the day of the implantation, the cells are separated using trypsin, centrifuged and suspended in complete culture medium. The cells are then implanted in the pleural cavity of female Nude Balb/C mice (10^6 cells per mouse). The products are administered i.v. to groups of 6 animals on days 7 and 14 at the doses indicated. The anti-tumour activity is expressed in % T/C as defined above.
Table 3 lists the results obtained with the compound of Example 3 of the present Application (especially representative of the invention) and with the closest compound of the prior art as reference product.

leukaemia P388 = test: Anti-tumour activity on leukaemia P388 (i.p.) in female BDF1 mice; format: in vivo, murine (female BDF1 mice)
Method: 1/Anti-tumour Activity of the Compounds on Leukaemia P388
The line P388 (murine leukaemia) was supplied by the National Cancer Institute (Frederick, USA). The tumour cells (10^6 cells) were injected on day 0 into the peritoneal cavity of female BDF1 mice (Iffa-Credo, France) weighing from 18 to 20 g (groups of 6 or 7 animals).
The products were administered intravenously, at the doses indicated, on day 1 or on days 1, 5 and 9.
The anti-tumour activity is expressed in % T/C: [formula]
The number of animals surviving 60 days (long-term survival) is indicated.
By way of example, Table 2 gives the results obtained with the compound of Example 32 which is especially representative of the invention.

[5] = 48 h, P388, 2 days incubation, read-out: IC50
[6] = 96 h, KB-3-1, 4 days incubation, read-out: IC50
[7] = 96 h, KB-A1, 4 days incubation, read-out: IC50
[8] = LLC, 4 days incubation, read-out: IC50
[9] = i.v. on days 7 and 14, 56.5 mg/kg
[10] = i.v. on days 7 and 14, 80 mg/kg
[11] = i.v. on days 7 and 14, 113 mg/kg

For `COc1cccc2c1C(=O)c1c(O)c3c(c(O)c1C2=O)C[C@@](O)(C(=O)CO)C[C@@H]3O[C@H]1C[C@H](N)[C@H](O)[C@H](C)O1` [ADR, adriamycin, reference compound], the pIC50 (murine leukaemia P388; P388, 48 h) was 7.74, the pIC50 ([1]; KB 3-1, 96 h) was 7.76 and the pIC50 ([2]; KB-A1, 96 h) was 5.17. The pIC50 [3] was 7.71.
With `CC(=O)Oc1ccc2c(c1)c1cc3c(C(=O)NCCN(C)C)nccc3c(C)c1n2C` [Example 2, 1-[(2-Dimethylaminoethyl)aminocarbonyl]-5,6-dimethyl-9-acetoxy-6H-pyrido-[4,3-b]carbazole] the pIC50 (murine leukaemia P388; [5]) was 8.24, the pIC50 [1, 6] was 7.44 and the pIC50 [2, 7] was 6.12. It also gave a pIC50 [3, 8] of 7.87.
`Cc1c2ccnc(C(=O)NCCN(C)C)c2cc2c3cc(OC(=O)CCCC(=O)O)ccc3n(C)c12.Cl.Cl` [Example 3, 1-[(2-Dimethylaminoethyl)aminocarbonyl]-5,6-dimethyl-9-(4-carboxybutanoyloxy)-6H-pyrido-[4,3-b]carbazole dihydrochloride] gave a pIC50 (murine leukaemia P388; [5]) of 8.15, a pIC50 [1, 6] of 7.13 and a pIC50 [2, 7] of 6.03. The pIC50 [3, 8] was 7.36, the “increase in survival of the animals” value ([4]; administered twice at 160 mg/kg i.v.) was 81% and the tolerability ([4]; even at a strong dose, i.v.) was “very well tolerated”. The therapeutic index ([4]; i.v.) was “excellent”, the anti-tumour activity ([4]; i.v. on days 7 and 14) was “active” and the T/C % [4, 9] was 133%. For the same compound, the T/C % [4, 10] was 147%, the T/C % [4, 11] was 174% and the T/C % ([4]; i.v. on days 7 and 14, 160 mg/kg) was 181%.
In the case of `Cc1c2ccnc(C(=O)NCCN(C)C)c2cc2c3cc(OC(=O)CCCCC(=O)O)ccc3n(C)c12` [Example 32, 1-[(2-Dimethylaminoethyl)aminocarbonyl]-5,6-dimethyl-9-(5-carboxypentanoyloxy)-6H-pyrido[4,3-b]carbazole], the pIC50 (murine leukaemia P388; [5]) was 8.29, the tolerability (leukaemia P388; even at a very high dose, i.v.) was “well tolerated” and the “weight loss and premature death” value (leukaemia P388; even at a very high dose, i.v.) was “neither significant weight loss nor premature death”. For the same compound, the general toxicity (leukaemia P388; i.v.) was “very low general toxicity”, the therapeutic index (leukaemia P388; i.v.) was “excellent therapeutic index” and the T/C % (leukaemia P388; i.v. on D1, 20 mg/kg) was 125%. It also gave a T/C % (leukaemia P388; i.v. on D1, 40 mg/kg) of 154%, a T/C % (leukaemia P388; i.v. on D1, 80 mg/kg) of 186% and a T/C % (leukaemia P388; i.v. on D1, 160 mg/kg) of 233%. The T/C % (leukaemia P388; i.v. on D1, 240 mg/kg) was over 600%, the “number of animals surviving 60 days (cured)” value (“number” below) (leukaemia P388; i.v. on D1, 240 mg/kg) was 4/7 and the T/C % (leukaemia P388; i.v. on D1, 320 mg/kg) was over 600%. The “number” value (leukaemia P388; i.v. on D1, 320 mg/kg) was 6/7, the T/C % (leukaemia P388; i.v. on D1, 5 and 9, 10 mg/kg) was 137% and the T/C % (leukaemia P388; i.v. on D1, 5 and 9, 20 mg/kg) was 171%. For the same compound, the T/C % (leukaemia P388; i.v. on D1, 5 and 9, 40 mg/kg) was 236%, the T/C % (leukaemia P388; i.v. on D1, 5 and 9, 80 mg/kg) was over 600% and the “number” value (leukaemia P388; i.v. on D1, 5 and 9, 80 mg/kg) was 6/7. For the same compound, the T/C % (leukaemia P388; i.v. on D1, 5 and 9, 160 mg/kg) was over 600%, the “number” value (leukaemia P388; i.v. on D1, 5 and 9, 160 mg/kg) was 6/7 and the pIC50 [1, 6] was 7.39. The pIC50 [2, 7] was 6.12 and the pIC50 [3, 8] was 8.46.
`Cc1c2ccnc(C(=O)NCCN(C)C)c2cc2c3cc(O)ccc3n(C)c12` [Reference product, 1[(2dimethylaminoethyl)aminocarbonyl5,6-dimethyl-9-hydroxy-6H-pyrido-[4,3]carbazoledihydrochloride, reference compound] was tested, and the “mouse dead during the treatments” value ([4]; 113 mg/kg i.v., days 7 and 14) was 1 mouse, the “toxicity of the dose” value ([4]; 113 mg/kg i.v., days 7 and 14) was “toxic dose” and the “toxicity of the dose” value ([4]; 113 mg/kg i.v., days 7 and 14, listed as reference product) was “toxic”. The T/C % ([4]; i.v. on days 7 and 14, 40 mg/kg) was 126%, the T/C % [4, 9] was 145% and the T/C % [4, 10] was 156%. For the same compound, the T/C % [4, 11] was 186%.
